Experimental data as given in patent US20240342068A1, “CYCLODEXTRIN-BASED ETHYL LAUROYL ARGINATE (LAE) CLATHRATE, AND PREPARATION METHOD AND USE THEREOF” (NANJING UNIVERSITY OF FINANCE & ECONOMICS, priority 2022, published 2024).

Columns and labels:
[1] = pH range; cited from earlier work
[2] = Low-temperature storage stability at 4° C. (appearance); type: physicochemical
Description: (§1) The pH stability of a system was characterized by measuring turbidity and particle size. A 1% w/v LAE aqueous solution and an HPβCD/LAE clathrate aqueous solution (4% w/v) containing a same amount of 1% w/v LAE were prepared, respectively. The pH values of the LAE aqueous solution and the HPβCD/LAE clathrate aqueous solution were adjusted to 1, 3, 5, 7, 9, and 11 with 0.01 mol/L to 0.5 mol/L of sodium hydroxide and hydrochloric acid solutions, respectively. After allowing to stand at room temperature for 24 h, the absorbance at 600 nm of the LAE aqueous solutions and the HPβCD/LAE clathrate aqueous solutions with different pH values were measured with a UV spectrophotometer. The absorbance was used to represent a turbidity of the solution, while pure water was used as a reference. The particle size of the solution was measured with a ZS90 nanometer particle size analyzer. Photographs were taken to record the changes of the above solutions stored at 4° C. for 0 h, 24 h, 7 d, and 35 d to characterize the low-temperature storage stability of the samples.

Staphylococcus aureus = test: Antibacterial activity by Oxford cup method with xanthan gum as interfering substance; type: cell-based; settings: 0.20% LAE, xanthan gum present, compared with no xanthan gum
Description: In order to test the performance of the HPβCD LAE clathrate prepared in Example 1, the antibacterial activity of the HPβCD/LAE clathrate in the presence of an anionic polysaccharide (xanthan gum) as an interfering substance was measured by an Oxford cup method. Groups A to G were set up, and each group had 3 parallel experiments. 15 mL of nutrient agar was added to each petri dish, cooled and solidified, and 100 μL of a Staphylococcus aureus solution (10^5 CFU/mL) was spread on each petri dish. […] Each group was placed with an Oxford cup, and 130 μL of an antibacterial solution was added to each Oxford cup; each of the Oxford cups was diffused in a 4° C. refrigerator for 24 h, cultured at 37° C. for 24 h, and an inhibition zone diameter (IZD) was measured with a micrometer. The mass percentages of the antibacterial solution added in Groups A to G were as follows: A: 0.20% LAE-no xanthan gum; B: 0.20% LAE; C: 0.08% HPβCD/LAE clathrate-0.02% LAE; D: 0.16% HPβCD/LAE clathrate-0.04% LAE; E: 0.40% HPβCD/LAE clathrate-0.10% LAE; F: 0.60% HPβCD/LAE clathrate-0.15% LAE; and G: 0.80% HPβCD/LAE clathrate-0.20% LAE. The […] was the raw material in Example 1.

[3] = pH stability by turbidity and particle size; type: physicochemical; settings: aqueous solution containing 1% w/v LAE, pH 1 to 11, room temperature 24 h
Description: as §1

[4] = in water at room temperature; cited from earlier work

CCCCCCCCCCCC(=O)N[C@@H](CCCN=C(N)N)C(=O)OCC.Cl [LAE, ethyl lauroyl arginate hydrochloride]
chemical stability [1]: desirable chemical stability at a pH value of 3 to 7
low-temperature storage appearance ([2]; prolonged storage at low temperature (4° C., up to 35 d)): eventually fully precipitated
low-temperature storage appearance ([2]; storage at low temperature (4° C.) for 24 h, pH 1 to 11): except for the solution of pH=7, all other LAE solutions had obvious crystallization
inhibition zone (Staphylococcus aureus): significantly reduced the inhibition zone of LAE
pH stability (turbidity, particle size) [3]: obviously aggregated outside the pH value of 3 to 7
solubility [4]: less than 2%
